In patent US12173012B2, “Indolocarbazole analogs of staurosporine and methods of synthesis thereof” (priority 2020, dated 2024):
Like-named read-outs stand apart in the source and are kept apart here.

Legend:
[1] = system: HMLE breast cancer cell line; conditions: for IC50: read-out: HMLE IC50
[2] = system: MDA-MB-231 breast cancer cell line; conditions: read-out: MDA-MB-231 IC50; MDA-MB-231 cells, 72 h incubation, MTS readout
[3] = system: MDA-MB-231 breast cancer cell line; assay: cells; conditions: Homo sapiens, MDA-MB-231, 72 h, read-out: MDA-MB-231 IC50

SMILES | fold less active/potent than staurosporine against HMLE cell line [1] [fold] | IC50 [1] [nM] | IC50 [2] [nM] | IC50 [3] [nM]
CN[C@@H]1C[C@H]2O[C@@](C)([C@@H]1OC)n1c3ccc(O)cc3c3c4c(c5c6ccccc6n2c5c31)C(=O)NC4 [Compound 13, 9-OH staurosporine] | 5.6 | 27.5 | 2 | –
CN[C@@H]1C[C@H]2O[C@@](C)([C@@H]1OC)n1c3cc(O)ccc3c3c4c(c5c6ccccc6n2c5c31)C(=O)NC4 [Compound 14, 10-OH staurosporine] | 12.0 | 58.7 | 3.4 | –
CN[C@@H]1C[C@H]2O[C@@](C)([C@@H]1OC)n1c3ccccc3c3c4c(c5c6ccccc6n2c5c31)C(=O)NC4 [Staurosporine] | – | – | – | 2.5
